Measured values reported in patent US20240409585A1, “MACROCYCLIC IMMUNOMODULATORS” (priority 2021, published 2024).
Bridge positions count the residues as written; N and C are the ends. Square brackets hold non-standard residues; d marks the D form. Peptide text beside a SMILES is read from it. * marks the point of attachment. ξ: configuration not given here. Phe(4-COOH) = N[C@@H](Cc1ccc(C(=O)O)cc1)C(=O)O; Bip = N[C@@H](Cc1ccc(-c2ccccc2)cc1)C(=O)O; Phe(3-CN) = N#Cc1cccc(C[C@H](N)C(=O)O)c1; Phe(3-Cl) = N[C@@H](Cc1cccc(Cl)c1)C(=O)O; Phe(3-F) = N[C@@H](Cc1cccc(F)c1)C(=O)O; Phe(3-Me) = Cc1cccc(C[C@H](N)C(=O)O)c1; Bta = N[C@@H](Cc1csc2ccccc12)C(=O)O; Val(3-OH) = CC(C)(O)[C@H](N)C(=O)O; 4Pal = N[C@@H](Cc1ccncc1)C(=O)O; 2Thi = N[C@@H](Cc1cccs1)C(=O)O; Cha = N[C@@H](CC1CCCCC1)C(=O)O; Cit = NC(=O)NCCC[C@H](N)C(=O)O; Ile(3ξ) = CCC(C)[C@H](N)C(=O)O; Thr(3ξ) = CC(O)[C@H](N)C(=O)O; Carboxymethyl = O=C(O)C*; NMeA = CN[C@@H](C)C(=O)O; Nle = CCCC[C@H](N)C(=O)O; Orn = NCCC[C@H](N)C(=O)O; Dab = NCC[C@H](N)C(=O)O; Dap = NC[C@H](N)C(=O)O; ξN = NC(=O)CC(N)C(=O)O

The compounds below were run against T1, PE-labeled human PD-L1-Ig binding to Jurkat cell line over-expressing human PD-1 (Jurkat-PD-1) (Homo sapiens, UniProt Q15116) (assay: Jurkat-PD-1 Cell Binding High-Content Screening Assay (CBA): Method 1). Conditions: Jurkat-hPD-1 cells, PE-labeled PD-L1-Ig 20 nM final; read-out: Jurkat HPDL1 PD1 IC50 (uM) (Method 1).
T1 construct: expressed in transfected cells; host or cells: Jurkat
T1 sequence (Q15116 25-288): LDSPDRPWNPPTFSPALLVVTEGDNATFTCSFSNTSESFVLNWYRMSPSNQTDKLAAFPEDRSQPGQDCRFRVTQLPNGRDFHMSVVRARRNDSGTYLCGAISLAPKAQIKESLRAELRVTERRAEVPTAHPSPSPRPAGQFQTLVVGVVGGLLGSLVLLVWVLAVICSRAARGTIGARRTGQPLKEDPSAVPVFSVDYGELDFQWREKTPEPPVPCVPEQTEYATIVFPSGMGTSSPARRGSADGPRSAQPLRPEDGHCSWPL

Point of comparison: `CC(C)C[C@@H]1NC(=O)[C@H](Cc2c[nH]c3ccccc23)NC(=O)[C@H](CC(=O)O)NC(=O)[C@H](Cc2ccc(C(=O)O)cc2)NC(=O)[C@H](Cc2ccc(OCC(=O)O)cc2)NC(=O)CSC[C@@H](C(=O)NC(CC(N)=O)C(N)=O)NC(=O)[C@H](CO)NC(=O)[C@H](C(C)C)NC(=O)[C@H](CC2CCCCC2)NC(=O)[C@H](CCN)NC(=O)[C@@H](CC(C)C)NC(=O)[C@H](C)N(C)C(=O)[C@H](C(C)C)NC(=O)[C@H](Cc2ccc(-c3ccccc3)cc2)NC1=O` (stereo partly drawn) [Compound 1912] ({CH2CO}-Y(Carboxymethyl)[Phe(4-COOH)]DWL[Bip]V[NMeA][dL][Dab][Cha]VSC[ξN]-NH2; thioether N-14), IC50 0.02 µM. Against it:
- Cc1cccc(C[C@@H]2NC(=O)[C@H](CC(=O)O)NC(=O)[C@H](Cc3ccc(C(=O)O)cc3)NC(=O)[C@H](Cc3ccc(OCC(=O)O)cc3)NC(=O)CSC[C@@H](C(=O)N[C@@H](C)C(N)=O)NC(=O)[C@H]([C@@H](C)O)NC(=O)[C@H](C(C)C)NC(=O)[C@H](CC(C)C)NC(=O)[C@H](CCN)NC(=O)[C@@H](CC(C)C)NC(=O)[C@H](C)N(C)C(=O)[C@H](CCCNC(N)=O)NC(=O)[C@H](Cc3ccc(-c4ccccc4)cc3)NC(=O)[C@H](C(C)C)NC2=O)c1 [Compound 1574] ({CH2CO}-Y(Carboxymethyl)[Phe(4-COOH)]D[Phe(3-Me)]V[Bip][Cit][NMeA][dL][Dab]LVTCA-NH2; thioether N-14) — the same, 0.02 µM
- CC(C)C[C@@H]1NC(=O)[C@H](CCCCN)NC(=O)[C@@H](CC(C)C)NC(=O)[C@H](C)N(C)C(=O)[C@H](CCCNC(=N)N)NC(=O)[C@H](Cc2ccc(-c3ccccc3)cc2)NC(=O)[C@H](C(C)C)NC(=O)[C@H](Cc2c[nH]c3ccccc23)NC(=O)[C@H](CC(=O)O)NC(=O)[C@H](Cc2ccc(O)cc2)NC(=O)[C@H](CC(N)=O)NC(=O)CSC[C@@H](C(=O)N[C@@H](C)C(N)=O)NC(=O)[C@H]([C@@H](C)O)NC(=O)[C@H](C(C)C)NC1=O [Compound 1269] ({CH2CO}-NYDWV[Bip]R[NMeA][dL]KLVTCA-NH2; thioether N-14) — 1.5-fold higher, 0.03 µM
- CC[C@H](C)[C@@H]1NC(=O)[C@H](Cc2ccc(-c3ccccc3)cc2)NC(=O)[C@H](C(C)C)NC(=O)[C@H](Cc2cccc(C)c2)NC(=O)[C@H](CC(=O)O)NC(=O)[C@H](Cc2ccc(O)cc2)NC(=O)[C@H](CC(N)=O)NC(=O)CSC[C@@H](C(=O)N[C@@H](CCN)C(N)=O)NC(=O)[C@H](CCC(=O)O)NC(=O)[C@H](C(C)(C)O)NC(=O)[C@H](CC2CCCCC2)NC(=O)[C@H](CCN)NC(=O)[C@@H](CC(C)C)NC(=O)[C@H](C)N(C)C1=O [Compound 1695] ({CH2CO}-NYD[Phe(3-Me)]V[Bip]I[NMeA][dL][Dab][Cha][Val(3-OH)]EC[Dab]-NH2; thioether N-14) — 2-fold lower, 0.01 µM
- Cc1cccc(C[C@@H]2NC(=O)[C@H](CC(=O)O)NC(=O)[C@H](Cc3ccc(OCC(=O)O)cc3)NC(=O)[C@H](Cc3ccc(OCC(=O)O)cc3)NC(=O)CSC[C@@H](C(N)=O)NC(=O)[C@H](CCCN)NC(=O)[C@H](C(C)C)NC(=O)[C@H](CC3CCCCC3)NC(=O)[C@H](CCN)NC(=O)[C@@H](CC(C)C)NC(=O)[C@H](C)N(C)C(=O)[C@H](Cc3ccc(OCC(=O)O)cc3)NC(=O)[C@H](Cc3ccc(-c4ccccc4)cc3)NC(=O)[C@H](Cc3ccc(OCC(=O)O)cc3)NC2=O)c1 [Compound 1652] ({CH2CO}-Y(Carboxymethyl)Y(Carboxymethyl)D[Phe(3-Me)]Y(Carboxymethyl)[Bip]Y(Carboxymethyl)[NMeA][dL][Dab][Cha]V[Orn]C-NH2; thioether N-14) — 1.5-fold higher, 0.03 µM
- CC(C)C[C@@H]1NC(=O)[C@H](CCN)NC(=O)[C@@H](CC(C)C)NC(=O)[C@H](C)N(C)C(=O)[C@H](CCCNC(=N)N)NC(=O)[C@H](Cc2ccc(-c3ccccc3)cc2)NC(=O)[C@H](C(C)C)NC(=O)[C@H](Cc2c[nH]c3ccccc23)NC(=O)[C@H](CC(=O)O)NC(=O)[C@H](Cc2ccc(C(=O)O)cc2)NC(=O)[C@H](CC(N)=O)NC(=O)CSC[C@@H](C(=O)N[C@@H](C)C(N)=O)NC(=O)[C@H]([C@@H](C)O)NC(=O)[C@H](C(C)C)NC1=O [Compound 1452] ({CH2CO}-N[Phe(4-COOH)]DWV[Bip]R[NMeA][dL][Dab]LVTCA-NH2; thioether N-14) — 2-fold higher, 0.04 µM
- Cc1cccc(C[C@@H]2NC(=O)[C@H](CC(=O)O)NC(=O)[C@H](Cc3ccc(OCC(=O)O)cc3)NC(=O)[C@H](C(C)O)NC(=O)CSC[C@@H](C(=O)N[C@@H](CCN)C(N)=O)NC(=O)[C@H](CO)NC(=O)[C@H](C(C)(C)O)NC(=O)[C@H](CC3CCCCC3)NC(=O)[C@H](CCN)NC(=O)[C@@H](CC(C)C)NC(=O)[C@H](C)N(C)C(=O)[C@H](Cc3ccc(C(=O)O)cc3)NC(=O)[C@H](Cc3ccc(-c4ccccc4)cc3)NC(=O)[C@H](Cc3ccc(C(=O)O)cc3)NC2=O)c1 (stereo partly drawn) [Compound 2152] ({CH2CO}-[Thr(3ξ)]Y(Carboxymethyl)D[Phe(3-Me)][Phe(4-COOH)][Bip][Phe(4-COOH)][NMeA][dL][Dab][Cha][Val(3-OH)]SC[Dab]-NH2; thioether N-14) — 2-fold lower, 0.01 µM
- CC(C)C[C@@H]1NC(=O)[C@H](CCN)NC(=O)[C@@H](CC(C)C)NC(=O)[C@H](C)N(C)C(=O)[C@H](CCCNC(=N)N)NC(=O)[C@H](Cc2ccc(-c3ccccc3)cc2)NC(=O)[C@H](C(C)C)NC(=O)[C@H](Cc2c[nH]c3ccccc23)NC(=O)[C@H](CC(=O)O)NC(=O)[C@H](Cc2cccc(Cl)c2)NC(=O)[C@H](CC(N)=O)NC(=O)CSC[C@@H](C(=O)N[C@@H](C)C(N)=O)NC(=O)[C@H]([C@@H](C)O)NC(=O)[C@H](C(C)C)NC1=O [Compound 1316] ({CH2CO}-N[Phe(3-Cl)]DWV[Bip]R[NMeA][dL][Dab]LVTCA-NH2; thioether N-14) — 2.5-fold higher, 0.05 µM
- CCCC[C@@H]1NC(=O)[C@H](CCCNC(=N)N)NC(=O)[C@@H](CC(C)C)NC(=O)[C@H](C)N(C)C(=O)[C@H](CCCNC(=N)N)NC(=O)[C@H](Cc2ccc(-c3ccccc3)cc2)NC(=O)[C@H](C(C)C)NC(=O)[C@H](Cc2c[nH]c3ccccc23)NC(=O)[C@H](CC(=O)O)NC(=O)[C@H](Cc2ccc(O)cc2)NC(=O)[C@H](CC(N)=O)NC(=O)CSC[C@@H](C(=O)N[C@@H](C)C(N)=O)NC(=O)[C@H]([C@@H](C)O)NC(=O)[C@H](C(C)C)NC1=O [Compound 1282] ({CH2CO}-NYDWV[Bip]R[NMeA][dL]R[Nle]VTCA-NH2; thioether N-14) — 6.5-fold higher, 0.13 µM
- Cc1cccc(C[C@@H]2NC(=O)[C@H](CC(=O)O)NC(=O)[C@H](Cc3ccc(OCC(=O)O)cc3)NC(=O)[C@H](Cc3ccncc3)NC(=O)CSC[C@@H](C(=O)N[C@@H](CCN)C(N)=O)NC(=O)[C@H](CCC(=O)O)NC(=O)[C@H](C(C)(C)O)NC(=O)[C@H](CC3CCCCC3)NC(=O)[C@H](CCN)NC(=O)[C@@H](CC(C)C)NC(=O)[C@H](C)N(C)C(=O)[C@H](Cc3ccc(OCC(=O)O)cc3)NC(=O)[C@H](Cc3ccc(-c4ccccc4)cc3)NC(=O)[C@H](Cc3ccc(OCC(=O)O)cc3)NC2=O)c1 [Compound 2188] ({CH2CO}-[4Pal]Y(Carboxymethyl)D[Phe(3-Me)]Y(Carboxymethyl)[Bip]Y(Carboxymethyl)[NMeA][dL][Dab][Cha][Val(3-OH)]EC[Dab]-NH2; thioether N-14) — the same, 0.02 µM
- CCNC(=O)[C@H](CCN)NC(=O)[C@@H]1CSCC(=O)N[C@@H](Cc2cccs2)C(=O)N[C@@H](Cc2cccc(C#N)c2)C(=O)N[C@@H](CC(=O)O)C(=O)N[C@@H](Cc2cccc(C)c2)C(=O)N[C@@H](Cc2cccc(F)c2)C(=O)N[C@@H](Cc2ccc(-c3ccccc3)cc2)C(=O)N[C@@H](C(C)C)C(=O)N(C)[C@@H](C)C(=O)N[C@H](CC(C)C)C(=O)N[C@@H](CCN)C(=O)N[C@@H](CC2CCCCC2)C(=O)N[C@@H](C(C)(C)O)C(=O)N[C@@H](CO)C(=O)N1 [Compound 1840] ({CH2CO}-[2Thi][Phe(3-CN)]D[Phe(3-Me)][Phe(3-F)][Bip]V[NMeA][dL][Dab][Cha][Val(3-OH)]SC[Dab]-NHEt; thioether N-14) — 2.5-fold higher, 0.05 µM
- CCC(C)[C@@H]1NC(=O)[C@H](Cc2ccc(-c3ccccc3)cc2)NC(=O)[C@H](CC(C)C)NC(=O)[C@H](Cc2c[nH]c3ccccc23)NC(=O)[C@H](CC(=O)O)NC(=O)[C@H](Cc2ccc(C(=O)O)cc2)NC(=O)[C@H](Cc2ccc(OCC(=O)O)cc2)NC(=O)CSC[C@@H](C(=O)N[C@@H](CCN)C(N)=O)NC(=O)[C@H](CCC(N)=O)NC(=O)[C@H](C(C)C)NC(=O)[C@H](CC2CCCCC2)NC(=O)[C@H](CCN)NC(=O)[C@@H](CC(C)C)NC(=O)[C@H](C)N(C)C1=O (stereo partly drawn) [Compound 1927] ({CH2CO}-Y(Carboxymethyl)[Phe(4-COOH)]DWL[Bip][Ile(3ξ)][NMeA][dL][Dab][Cha]VQC[Dab]-NH2; thioether N-14) — 2-fold lower, 0.01 µM
- CC(C)C[C@@H]1NC(=O)[C@H](CCCNC(=N)N)NC(=O)[C@H](Cc2csc3ccccc23)NC(=O)[C@H](C)N(C)C(=O)[C@H](CCC(=O)O)NC(=O)[C@H](Cc2ccc(-c3ccccc3)cc2)NC(=O)[C@H](C(C)C)NC(=O)[C@H](Cc2c[nH]c3ccccc23)NC(=O)[C@H](CC(=O)O)NC(=O)[C@H](Cc2ccc(O)cc2)NC(=O)[C@H](Cc2ccccc2)NC(=O)CSC[C@@H](C(=O)N[C@@H](C)C(N)=O)NC(=O)[C@H]([C@@H](C)O)NC(=O)[C@H](C(C)C)NC1=O [Compound 1133] ({CH2CO}-FYDWV[Bip]E[NMeA][Bta]RLVTCA-NH2; thioether N-14) — 18-fold higher, 0.35 µM
- CC[C@H](C)[C@@H]1NC(=O)[C@H](Cc2ccc(-c3ccccc3)cc2)NC(=O)[C@H](C(C)C)NC(=O)[C@H](Cc2c[nH]c3ccccc23)NC(=O)[C@H](CC(=O)O)NC(=O)[C@H](Cc2ccc(O)cc2)NC(=O)[C@H](CN)NC(=O)CSC[C@@H](C(=O)N[C@@H](C)C(N)=O)NC(=O)[C@H]([C@@H](C)O)NC(=O)[C@H](C(C)C)NC(=O)[C@H](CC(C)C)NC(=O)[C@H](CCN)NC(=O)[C@@H](CC(C)C)NC(=O)[C@H](C)N(C)C1=O [Compound 1414] ({CH2CO}-[Dap]YDWV[Bip]I[NMeA][dL][Dab]LVTCA-NH2; thioether N-14) — 5-fold higher, 0.1 µM
